From US6576675B1, “Z-styryl sulfone anticancer agents” (Temple University - Of the Commonwealth System of Higher …, priority 1999, dated 2003) come the findings set out here.

What all share (format): cell-based
Assay [1] relates to Renal cell lines: CAKI-1, CAKI-2. Kind of assay: Viability assay (Trypan blue exclusion), renal tumor cell lines. The conditions noted are these: 2.5 mM, 72 hours, read-out: % Death, tumor cell type Renal. The protocol:
(§1) Cells were treated with test compound at 2.5 mM concentration and cell viability was determined after 72 hours by the Trypan blue exclusion method.
(§2) Activity for each compound is reported as a range of cell induced death (% Death) with the lowest activity in the range of 10-20% and the highest being above 75%.
(§3) The procedure of Example 22 was followed for certain of the (Z)-benzylsulfones, substituting the following cancer cell lines: lung, N417 and H157; renal, CAKI-1 and CAKI-2; glioma, U87 and SW1088.

Assay [2] has as its system Glioma cell lines: U87, SW1088. Put plainly: Viability assay (Trypan blue exclusion), glioma cell lines. The following applies: Homo sapiens, 2.5 mM, 72 hours, read-out: % Death, tumor cell type Glioma. The protocol: as §1, §2, §3
Assay [3] relates to Prostate cell lines: LnCaP, DU-145. Kind of assay: Viability assay (Trypan blue exclusion), prostate tumor cell lines. The following applies: 2.5 mM, 72 hours, read-out: % Death, tumor cell type Prostate. On the procedure:
(§4) The effect of the Z-styryl sulfones on normal fibroblasts and on tumor cells of breast, prostate and ovarian origin was examined utilizing the following cell lines: breast tumor cell lines: MCF-7, BT-20 and 435; prostate tumor cell lines LnCaP and DU-145; and ovarian tumor cell lines OVCAR and SKOV3. NIH/3T3 and HFL cells, which are normal murine and human fibroblasts, respectively, were also tested. LnCap is an androgen-dependent prostate tumor cell line. MCF-7 is an estrogen-responsive breast tumor cell line, while BT-20 and 435 are estrogen-unresponsive breast tumor cell lines. MCF-7, BT-20 and 435 were grown in Dulbecco's modified Eagle's medium (DMEM) containing 10% fetal bovine serum supplemented with penicillin and streptomycin. LnCaP and Du145 were cultured in RPMI with 10% fetal bovine serum containing penicillin and streptomycin. NIH3T3 and HFL cells were grown in DMEM containing 10% calf serum supplemented with penicillin and streptomycin. All cell cultures were maintained at 37° C. in a humidified atmosphere of 5% CO2.
as §1, §2

The subject of assay [4] is Ovarian cell lines: OVCAR, SKOV3. Kind of assay: Viability assay (Trypan blue exclusion), ovarian tumor cell lines. The following applies: Homo sapiens, 2.5 mM, 72 hours, read-out: % Death, tumor cell type Ovarian. The protocol: as §4, §1, §2
The subject of assay [5] is Lung cell lines: N417, H157. Put plainly: Viability assay (Trypan blue exclusion), lung tumor cell lines. The following applies: 2.5 mM, 72 hours, read-out: % Death, tumor cell type Lung. On the procedure:
as §1, §2, §3

In assay [6] the test system is Breast cell lines: MCF-7, BT-20, 435. Kind of assay: Viability assay (Trypan blue exclusion), breast tumor cell lines. The following applies: 2.5 mM, 72 hours, read-out: % Death, tumor cell type Breast. On the procedure: as §4, §1, §2

In the case of `O=S(=O)(/C=C\c1ccc(Cl)cc1)Cc1ccccc1` [Example 5, Z-4-Chlorostyryl Benzylsulfone], the cytotoxicity at 2500 µM in assay [1], in assay [2], in assay [3], in assay [4], in assay [5] and in assay [6] was 20 to 25% throughout.

With `O=S(=O)(/C=C\c1ccc(Cl)cc1)Cc1ccc(Cl)cc1` [Example 6, Z-4-Chlorostyryl 4-Chlorobenzylsulfone], the cytotoxicity at 2500 µM in assay [1], in assay [2], in assay [3], in assay [4], in assay [5] and in assay [6] was 60 to 70% each time.

As for `O=S(=O)(/C=C\c1ccc(Br)cc1)Cc1ccccc1` [Example 13, Z-4-Bromostyryl Benzylsulfone], the cytotoxicity at 2500 µM in assay [3], in assay [4] and in assay [6] was 20 to 25% throughout.

In the case of `O=S(=O)(/C=C\c1ccccc1)Cc1ccccc1Cl` [Example 3, Z-styryl 2-Chlorobenzylsulfone], the cytotoxicity at 2500 µM in assay [3], in assay [4] and in assay [6] was 20 to 25% in each case.

On to `O=S(=O)(/C=C\c1ccc(F)cc1)Cc1ccccc1` [Example 9, Z-4-Fluorostyryl Benzylsulfone], for which the cytotoxicity at 2500 µM in assay [3], in assay [4] and in assay [6] was 20 to 25% throughout.

With `O=S(=O)(/C=C\c1ccc(F)cc1)Cc1ccc(F)cc1` [Example 12, Z-4-Fluorostyryl 4-Fluorobenzylsulfone], the cytotoxicity at 2500 µM in assay [1], in assay [2], in assay [3], in assay [4], in assay [5] and in assay [6] was 40 to 50% throughout.

`O=S(=O)(/C=C\c1ccc(Cl)cc1)Cc1ccccc1Cl` [Example 7, Z-4-Chlorostyryl 2-Chlorobenzylsulfone]: the cytotoxicity at 2500 µM in assay [1], in assay [2], in assay [3], in assay [4], in assay [5] and in assay [6] was 20 to 25% throughout.

With `O=S(=O)(/C=C\c1ccc(Br)cc1)Cc1ccccc1Cl` [Example 15, Z-4-Bromostyryl 2-Chlorobenzylsulfone], the cytotoxicity at 2500 µM in assay [1], in assay [2], in assay [3], in assay [4], in assay [5] and in assay [6] was 20 to 25% throughout.

Turning to `O=S(=O)(/C=C\c1ccc(F)cc1)Cc1ccccc1Cl` [Example 11, Z-4-Fluorostyryl 2-Chlorobenzylsulfone], the cytotoxicity at 2500 µM in assay [1], in assay [2], in assay [3], in assay [4], in assay [5] and in assay [6] was 20 to 25% throughout.

For the molecule `Cc1ccc(/C=C\S(=O)(=O)Cc2ccccc2)cc1` [Example 17, Z-4-Methylstyryl Benzylsulfone], the cytotoxicity at 2500 µM in assay [3], in assay [4] and in assay [6] was 20 to 25% each time.

Consider `O=S(=O)(/C=C\c1ccc(Br)cc1)Cc1ccc(Cl)cc1` [Example 14, Z-4-Bromostyryl 4-Chlorobenzylsulfone], for which the cytotoxicity at 2500 µM in assay [1], in assay [2], in assay [3], in assay [4], in assay [5] and in assay [6] was over 75% each time.

For `Cc1ccc(/C=C\S(=O)(=O)Cc2ccccc2Cl)cc1` [Example 19, Z-4-Methylstyryl 2-Chlorobenzylsulfone], the cytotoxicity at 2500 µM in assay [3], in assay [4] and in assay [6] was 20 to 25% in each case.

Consider `Cc1ccc(/C=C\S(=O)(=O)Cc2ccc(F)cc2)cc1` [Example 20, Z-4-Methylstyryl 4-Fluorobenzylsulfone], for which the cytotoxicity at 2500 µM in assay [1], in assay [2], in assay [3], in assay [4], in assay [5] and in assay [6] was 20 to 25% throughout.

With `O=S(=O)(/C=C\c1ccccc1)Cc1ccc(F)cc1` [Example 4, Z-styryl 4-Fluorobenzylsulfone], the cytotoxicity at 2500 µM in assay [3], in assay [4] and in assay [6] was 20 to 25% in each case.

On to `O=S(=O)(/C=C\c1ccc(Br)cc1)Cc1ccc(F)cc1` [Example 16, Z-4-Bromostyryl 4-Fluorobenzylsulfone], for which the cytotoxicity at 2500 µM in assay [1], in assay [2], in assay [3], in assay [4], in assay [5] and in assay [6] was 60 to 70% in each case.

On to `O=S(=O)(/C=C\c1ccc(F)cc1)Cc1ccc(Cl)cc1` [Example 10, Z-4-Fluorostyryl 4-Chlorobenzylsulfone], for which the cytotoxicity at 2500 µM in assay [1], in assay [2], in assay [3], in assay [4], in assay [5] and in assay [6] was 60 to 70% throughout.

Regarding `Cc1ccc(/C=C\S(=O)(=O)Cc2ccc(Cl)cc2)cc1` [Example 18, Z-4-Methylstyryl 4-Chlorobenzylsulfone], the cytotoxicity at 2500 µM in assay [1], in assay [2], in assay [3], in assay [4], in assay [5] and in assay [6] was 20 to 25% each time.

With `O=S(=O)(/C=C\c1ccccc1)Cc1ccccc1` [Example 1, Z-styryl Benzylsulfone], the cytotoxicity at 2500 µM in assay [3], in assay [4] and in assay [6] was 10 to 20% each time.

Take `O=S(=O)(/C=C\c1ccc(Cl)cc1)Cc1ccc(F)cc1` [Example 8, Z-4-Chlorostyryl 4-Fluorobenzylsulfone]: the cytotoxicity at 2500 µM in assay [1], in assay [2], in assay [3], in assay [4], in assay [5] and in assay [6] was over 75% in each case.

Turning to `O=S(=O)(/C=C\c1ccccc1)Cc1ccc(Cl)cc1` [Example 2, Z-styryl 4-Chlorobenzylsulfone], the cytotoxicity at 2500 µM in assay [3], in assay [4] and in assay [6] was 20 to 25% in each case.
